According to patent publication US5952368A, “5-aroylpyrrol-2-ylmethylarene derivatives” (Syntex (U.S.A.) Inc., priority 1997, dated 1999):

Assays:
[1] = tested on: cognitive decline of Alzheimer's patients; conditions: cited from earlier work
air pouch PGE2 formation = assay: Inhibition of eicosanoid (PGE2) synthesis in vivo: carrageenan air-pouch model in rats; design: species or system rat; conditions: 2-5 mg/Kg, oral, male rats, time not given
Procedure: In this assay, an air-pouch is created in the rat and the PGE2 levels in the air-pouch exudate are measured by enzyme immunoassay. Briefly, male rats were anesthetized using a 60:40 CO2 :O2 mixture and subsequently injected subcutaneously with 20 ml of sterilized air, under aseptic conditions, in the proximal area of the dorsum. This injection of sterile air causes the creation of a subcutaneous "air pouch". The next day, a further 10 ml of sterile air was injected into the previously formed pouch using the same technique. […] Control rats received vehicle alone. After 30 minutes, 5 ml of a 0.5% solution of carrageenan (Sigma, Lambda Type IV) was injected into the air pouch. The rats were euthanized 3 or 6 h after the compound administration. […] The total exudate volume was recorded, and the samples were analyzed for PGE2 and 6-keto PGF1 by ELISA (Titerzyme®, PerSeptive Diagnostics) and TxB2 by radioimmuno assay (New England Nuclear Research, Catalog No. NEK-037), according to the manufacturer's directions.
The mean concentrations of PGE2 were calculated for each group. The anti-inflammatory activity of test materials is expressed as the percent inhibition of PGE2 formation in the test group relative to the control group.

## COc1ccc2c(c1)c(CC(=O)O)c(C)n2C(=O)c1ccc(Cl)cc1 [Indomethacin, indomethacin, reference compound]
[1]
  effect on cognitive decline of Alzheimer's patients (in words): inhibit the cognitive decline of Alzheimer's patients
Air pouch PGE2 formation
  % Inhibition of air pouch PGE2 formation: > 70%
